Data published in the CheMixHub viscosity set.

Assay: xn = mol fraction of the nth substance listed

[Cl-].[NH4+] + O
viscosity [mPa·s]
Conditions | 298.15 K | 308.15 K | 313.15 K | 323.15 K
101.3 kPa, x1 = 0.00112 | – | 0.7299 | 0.6608 | 0.556
101.3 kPa, x1 = 0.002247 | – | 0.7289 | 0.6597 | 0.5555
101.3 kPa, x1 = 0.004484 | – | 0.7281 | 0.659 | 0.5551
101.3 kPa, x1 = 0.008927 | – | 0.7279 | 0.6586 | 0.5547
101.3 kPa, x1 = 0.0177 | – | 0.7315 | 0.661 | 0.557
101.33 kPa, x1 = 0.000905 | – | 0.7306 | 0.6614 | 0.5565
101.33 kPa, x1 = 0.002718 | – | 0.7295 | 0.6608 | 0.556
101.33 kPa, x1 = 0.00453 | – | 0.7288 | 0.6603 | 0.5556
101.33 kPa, x1 = 0.006344 | – | 0.7285 | 0.6598 | 0.5544
101.33 kPa, x1 = 0.008159 | – | 0.731 | 0.662 | 0.557
101.33 kPa, x1 = 0.1165 | 1.094 | – | – | –

COCCOCCOCCO + CN(CCO)CCO
viscosity [mPa·s], 101.33 kPa
Conditions | x2 = 0.1004 | x2 = 0.2133 | x2 = 0.2964 | x2 = 0.3993 | x2 = 0.4991 | x2 = 0.5993 | x2 = 0.7001 | x2 = 0.8006 | x2 = 0.9002
298.15 K | 6.741 | 8.012 | 9.103 | 10.85 | 13.35 | 17.08 | 22.81 | 31.15 | 50.17
313.15 K | 4.491 | 5.038 | 5.882 | 6.508 | 7.732 | 9.412 | 12.03 | 15.99 | 22.23
323.15 K | 3.445 | 3.861 | 4.307 | 4.93 | 5.674 | 6.845 | 8.383 | 10.78 | 14.36

CCNCC + CNC(C)=O
308.15 K, 101 kPa
Conditions | viscosity [mPa·s]
x2 = 0.0413 | 0.2729
x2 = 0.1815 | 0.4061
x2 = 0.3505 | 0.6727
x2 = 0.5056 | 1.02
x2 = 0.5776 | 1.254
x2 = 0.6715 | 1.563
x2 = 0.7881 | 2.064
x2 = 0.8957 | 2.614
x2 = 0.9724 | 3.097

Nc1ccccc1 + CC(=O)O
viscosity [mPa·s]
Conditions | 298.15 K | 308.15 K | 323.15 K
101.3 kPa, x1 = 0.0382 | 2.15 | 1.72 | 1.27
101.3 kPa, x1 = 0.0652 | 3.65 | 2.72 | 1.83
101.3 kPa, x1 = 0.0972 | 5.78 | 4.07 | 2.51
101.3 kPa, x1 = 0.132 | 8.79 | 5.69 | 3.26
101.3 kPa, x1 = 0.186 | 14.2 | 8.51 | 4.27
101.3 kPa, x1 = 0.229 | 18.5 | 10.5 | 5.14
101.3 kPa, x1 = 0.257 | 20.3 | 11.4 | 5.4
101.3 kPa, x1 = 0.286 | 20.8 | 11.6 | 5.52
101.3 kPa, x1 = 0.3 | 21.2 | 11.8 | 5.58
101.3 kPa, x1 = 0.333 | 20.5 | 11.6 | 5.43
101.3 kPa, x1 = 0.35 | 20.1 | 11.1 | 5.33
101.3 kPa, x1 = 0.377 | 19 | 10.7 | 5.16
101.3 kPa, x1 = 0.425 | 15.9 | 9.01 | 4.61
101.3 kPa, x1 = 0.497 | 13.5 | 7.7 | 4.03
101.3 kPa, x1 = 0.546 | 10.7 | 6.51 | 3.6
101.3 kPa, x1 = 0.675 | 6.68 | 4.48 | –
101.3 kPa, x1 = 0.799 | 5.08 | 3.61 | 2.39
101.3 kPa, x1 = 0.86 | 4.57 | 3.3 | 2.25
101.33 kPa, x1 = 0.1058 | 7.29 | – | 2.96
101.33 kPa, x1 = 0.1746 | 12.3 | – | –
101.33 kPa, x1 = 0.2824 | 21.9 | – | 5.65
101.33 kPa, x1 = 0.3086 | 21.4 | – | 5.58
101.33 kPa, x1 = 0.3408 | 20.3 | – | 5.23
101.33 kPa, x1 = 0.3878 | 18.1 | – | –
101.33 kPa, x1 = 0.5159 | 11.8 | – | 3.82

COCCOCCOCCOC + CCCCCCCCCO
101 kPa
Conditions | viscosity [mPa·s]
293.15 K, x1 = 0.06286 | 8.733
293.15 K, x1 = 0.0721 | 8.424
293.15 K, x1 = 0.157 | 6.409
293.15 K, x1 = 0.1967 | 5.797
293.15 K, x1 = 0.3999 | 3.779
293.15 K, x1 = 0.4952 | 3.246
293.15 K, x1 = 0.5949 | 2.852
293.15 K, x1 = 0.6909 | 2.575
293.15 K, x1 = 0.7539 | 2.434
293.15 K, x1 = 0.8907 | 2.226
293.15 K, x1 = 0.9525 | 2.165
303.15 K, x1 = 0.06693 | 6.211
303.15 K, x1 = 0.08755 | 5.811
303.15 K, x1 = 0.1949 | 4.339
303.15 K, x1 = 0.2889 | 3.545
303.15 K, x1 = 0.3982 | 2.936
303.15 K, x1 = 0.4875 | 2.576
303.15 K, x1 = 0.5926 | 2.286
303.15 K, x1 = 0.698 | 2.082
303.15 K, x1 = 0.7829 | 1.952
303.15 K, x1 = 0.9059 | 1.83
303.15 K, x1 = 0.9404 | 1.795
313.15 K, x1 = 0.05997 | 4.72
313.15 K, x1 = 0.1 | 4.218
313.15 K, x1 = 0.1977 | 3.34
313.15 K, x1 = 0.2965 | 2.774
313.15 K, x1 = 0.3974 | 2.365
313.15 K, x1 = 0.4862 | 2.111
313.15 K, x1 = 0.5834 | 1.9
313.15 K, x1 = 0.6643 | 1.767
313.15 K, x1 = 0.802 | 1.635
313.15 K, x1 = 0.915 | 1.521
313.15 K, x1 = 0.9497 | 1.503

COCCOCCOCCO + CCCC(C)O
viscosity [mPa·s], 101 kPa
Conditions | x1 = 0.0047 | x1 = 0.0177 | x1 = 0.0299 | x1 = 0.0546 | x1 = 0.0827 | x1 = 0.1089
298.15 K | 3.349 | 3.306 | 3.258 | 3.191 | 3.143 | 3.122
308.15 K | 2.319 | 2.316 | 2.3 | 2.288 | 2.285 | 2.295
318.15 K | 1.672 | 1.676 | 1.684 | 1.695 | 1.712 | 1.732

Nc1ccccc1 + CCCCCCO
viscosity [mPa·s], 100 kPa
Conditions | 293.15 K | 303.15 K | 313.15 K | 323.15 K
x1 = 0.0816 | 4.79 | 3.54 | 2.65 | 2.05
x1 = 0.1448 | – | 3.327 | 2.396 | –
x1 = 0.1533 | 4.4 | 3.29 | 2.48 | 1.92
x1 = 0.2422 | 4.1 | 3.09 | 2.33 | 1.82
x1 = 0.2758 | – | 2.857 | 1.969 | –
x1 = 0.3514 | 3.81 | 2.87 | 2.21 | 1.73
x1 = 0.4176 | – | 2.453 | 1.627 | –
x1 = 0.4449 | 3.64 | 2.74 | 2.12 | 1.66
x1 = 0.5246 | – | 2.213 | 1.457 | –
x1 = 0.5571 | 3.55 | 2.61 | 2.04 | 1.61
x1 = 0.6037 | – | 2.119 | 1.397 | –
x1 = 0.6483 | 3.52 | 2.59 | 2.03 | 1.61
x1 = 0.7131 | – | 2.101 | 1.432 | –
x1 = 0.7361 | 3.55 | 2.61 | 2.05 | 1.63
x1 = 0.8283 | – | 2.283 | 1.639 | –
x1 = 0.8542 | 3.73 | 2.72 | 2.16 | 1.71
x1 = 0.932 | – | 2.648 | 1.979 | –
x1 = 0.9356 | 4.03 | 2.93 | 2.32 | 1.84
